Measured values taken from ChEMBL document CHEMBL4699621, “Novel piperazine-2,5-dione analogs bearing 1H-indole: Synthesis and biological effects” (Bioorg Med Chem Lett, 2020).

What was measured:
Mus musculus [1] = test: Antidepressant activity in mouse assessed as decrease in immobility time at 10 mg/kg, ip by forced swimming test (reference value: 147.8 +/- 10.2 sec); format: functional
Mus musculus [2] = test: Anti-inflammatory activity against dimethylbenzene-induced ear edema mouse model assessed as inhibition of ear edema at 10 mg/kg, ip measured after 60 mins (reference value: 6.93 +/- 1.05 mg); format: functional; conditions: 1 h
Mus musculus [3] = test: Anti-inflammatory activity against dimethylbenzene-induced ear edema mouse model assessed as inhibition of ear edema at 10 mg/kg, ip measured after 60 mins relative to control; format: functional; set-up: scale not given: the % may be the effect or the level left; conditions: 1 h
Mus musculus [4] = test: Analgesic activity in mouse assessed as inhibition of acetic acid-induced writhing at 10 mg/kg, ip measured after 60 mins relative to control; format: functional; set-up: scale not given: the % may be the effect or the level left; conditions: 1 h
[5] = target: 5-HT3 receptor (Cavia porcellus); test: Antagonist activity against 5-H3R in guinea pig ileum preincubated for 10 mins followed by 2-methyl 5-HT addition; conditions: read-out: pA2 (converted)
Mus musculus [6] = test: Antidepressant activity in mouse assessed as decrease in immobility time at 10 mg/kg, ip by forced swimming test relative to control; format: functional; set-up: scale not given: the % may be the effect or the level left

Compound	Time (Mus musculus [1])	Activity (Mus musculus [2])	Activity (Mus musculus [3])	Activity (Mus musculus [4])	Kb [5]	Activity (Mus musculus [6])
Cc1ccc2cc(CC3NC(=O)C(C)NC3=O)[nH]c2c1 (stereo not given)	58.2 s	1.12 mg	83.3%	79.3%	–	–
CC1NC(=O)C(Cc2cc3ccc(N(C)C)cc3[nH]2)NC1=O (stereo not given)	95.1 s	2.47 mg	–	60.1%	–	–
Cc1ccccc1N1CCN(C(=O)C2Cc3ccccc3N2C)CC1 (stereo not given)	–	–	–	–	31.6 nM	–
CC1NC(=O)C(Cc2cc3ccccc3[nH]2)NC1=O (stereo not given)	93.3 s	2.4 mg	–	51.6%	–	–
CC1NC(=O)C(Cc2cc3cc(Cl)ccc3[nH]2)NC1=O (stereo not given)	64.8 s	0.7 mg	89.8%	87.5%	–	–
CC1NC(=O)C(Cc2cc3ccc(F)cc3[nH]2)NC1=O (stereo not given)	52.8 s	0.69 mg	90%	77.8%	–	–
CC1NC(=O)C(Cc2cc3cc([N+](=O)[O-])ccc3[nH]2)NC1=O (stereo not given)	88.6 s	1.61 mg	–	66.8%	–	–
CNCCC(Oc1ccc(C(F)(F)F)cc1)c1ccccc1 (stereo not given) [FLUOXETINE]	47.4 s	–	–	–	–	67.9%
CC1NC(=O)C(Cc2cc3cc(Cl)c(Cl)cc3[nH]2)NC1=O (stereo not given)	42.5 s	0.79 mg	87.2%	82.5%	–	71.2%
COc1ccc2cc(CC3NC(=O)C(C)NC3=O)[nH]c2c1 (stereo not given)	77.2 s	1.5 mg	–	65%	–	–
CC1NC(=O)C(Cc2cc3ccc(Br)cc3[nH]2)NC1=O (stereo not given)	76.8 s	1.72 mg	–	62.8%	–	–
CC1NC(=O)C(Cc2cc3cc(Br)ccc3[nH]2)NC1=O (stereo not given)	79.4 s	1.42 mg	–	70.2%	–	–
CC1NC(=O)C(Cc2cc3cc(N(C)C)ccc3[nH]2)NC1=O (stereo not given)	91.3 s	2.02 mg	–	50.9%	–	–
CC1NC(=O)C(Cc2cc3ccc(Cl)cc3[nH]2)NC1=O (stereo not given)	66.8 s	0.89 mg	87.2%	65.4%	–	–
CC1NC(=O)C(Cc2cc3cc(C(F)(F)F)ccc3[nH]2)NC1=O (stereo not given)	44 s	0.45 mg	93.5%	88.9%	–	70.2%
Cc1ccc2[nH]c(CC3NC(=O)C(C)NC3=O)cc2c1 (stereo not given)	53.5 s	1.04 mg	85%	55.2%	–	–
CC1NC(=O)C(Cc2cc3cc(F)ccc3[nH]2)NC1=O (stereo not given)	53.1 s	0.61 mg	91.2%	90.2%	–	–
COc1cc2cc(CC3NC(=O)C(C)NC3=O)[nH]c2cc1OC (stereo not given)	98 s	3.03 mg	–	58.9%	–	–
COc1ccc2c(c1)c(CC(=O)O)c(C)n2C(=O)c1ccc(Cl)cc1 [INDOMETHACIN]	–	1.05 mg	84.8%	88.7%	–	–
COc1ccc2[nH]c(CC3NC(=O)C(C)NC3=O)cc2c1 (stereo not given)	67.3 s	1.41 mg	–	53.2%	–	–
Cc1cc2cc(CC3NC(=O)C(C)NC3=O)[nH]c2cc1C (stereo not given)	87.2 s	2.83 mg	–	54.3%	–	–
